Assay results as given in PubChem BioAssay (NCI).
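Method: 48-hour compound exposure of cells in 96-well plates, five concentrations, linear interpolation of endpoints. The concentration for 50% growth inhibition is given as GI50. TGI is the concentration that stops growth completely.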

Legend:
Experiment in all cases: NCI-60 cell line screen, 48 h
[1] = test system: ACHN renal
[2] = test system: HOP-18 NSCLC
[3] = test system: HT29 colon
[4] = test system: NCI-H23 lung
[5] = test system: SF-539 CNS
[6] = test system: UACC-257 melanoma
[7] = test system: DU-145 prostate
[8] = test system: MOLT-4 leukemia
[9] = test system: NCI-H226 lung

C=CCCc1cc(OC)ccc1CN(C)C(C)(C)CO
TGI [1]: > 100 µM
TGI [2]: > 100 µM
TGI [3]: > 100 µM
TGI [4]: > 100 µM
TGI [5]: > 100 µM
TGI [6]: > 100 µM

CCc1nc(N)nc(N)c1-c1ccc(Cl)cc1
TGI [1]: > 100 µM
GI50 [7]: 13.2 µM
TGI [7]: > 100 µM
TGI [3]: > 100 µM
GI50 [8]: 25.6 µM
TGI [8]: > 100 µM
GI50 [9]: 47.9 µM
TGI [9]: > 100 µM
GI50 [4]: 7.62 µM
TGI [4]: > 100 µM
GI50 [5]: 9.43 µM
TGI [5]: > 100 µM
GI50 [6]: 10.3 µM
TGI [6]: > 100 µM

COc1ccc(C(=O)c2cc3c(N)c(C(=O)Nc4cccc(Cl)c4)sc3nc2C)cc1
GI50 [1]: 2.12 µM
TGI [1]: > 33.3 µM
GI50 [7]: 1.26 µM
TGI [7]: > 33.3 µM
GI50 [3]: 1.2 µM
TGI [3]: > 33.3 µM
GI50 [8]: 1.89 µM
TGI [8]: > 33.3 µM
GI50 [9]: 16 µM
TGI [9]: > 33.3 µM
GI50 [4]: 2.53 µM
TGI [4]: > 33.3 µM
GI50 [5]: 0.995 µM
TGI [5]: 3.2 µM
GI50 [6]: 30.7 µM
TGI [6]: > 33.3 µM

CC(C)Oc1cc(OCC(=O)O)cc(C(=O)N(CCC(N)=O)C(=O)Nc2ccc(C(=O)O)cc2OC(C)C)c1
GI50 [1]: > 100 µM
TGI [1]: > 100 µM
GI50 [7]: > 100 µM
TGI [7]: > 100 µM
GI50 [3]: > 100 µM
TGI [3]: > 100 µM
GI50 [8]: > 100 µM
TGI [8]: > 100 µM
GI50 [9]: > 100 µM
TGI [9]: > 100 µM
GI50 [4]: > 100 µM
TGI [4]: > 100 µM
GI50 [5]: > 100 µM
TGI [5]: > 100 µM
GI50 [6]: > 100 µM
TGI [6]: > 100 µM

CC[C@]1(O)C[C@@H]2CN(Cc3c([nH]c4ccccc34)[C@@](C(=O)OC)(c3cc4c(cc3OC)N(C)[C@H]3[C@@](O)(C(=O)OC)[C@H](OC(C)=O)[C@]5(CC)[C@@H]6C[C@@H]6CN6CC[C@]43[C@@H]65)C2)C1
GI50 [1]: 3.38 µM
TGI [1]: > 4.38 µM
GI50 [7]: 0.0433 µM
TGI [7]: > 4.38 µM
GI50 [3]: 0.0311 µM
TGI [3]: > 4.38 µM
GI50 [8]: 0.0484 µM
TGI [8]: > 4.38 µM
GI50 [9]: > 1.44 µM
TGI [9]: > 4.38 µM
GI50 [4]: 0.195 µM
TGI [4]: > 4.38 µM
GI50 [5]: 0.0363 µM
GI50 [6]: > 4.38 µM
TGI [6]: > 4.38 µM

Cc1c(C(=O)/C=C/c2ccco2)[n+](=O)c2ccccc2n1[O-]
TGI [1]: > 100 µM
TGI [2]: > 100 µM
TGI [3]: > 100 µM
TGI [8]: > 100 µM
TGI [9]: > 100 µM
TGI [4]: > 100 µM
TGI [5]: > 100 µM
TGI [6]: > 100 µM

FC(F)(F)c1ccc2nc(-c3nc(-c4ccccc4)n4ccccc34)[nH]c2c1
GI50 [1]: 2.23 µM
TGI [1]: 6.12 µM
GI50 [7]: 7.5 µM
TGI [7]: 30.3 µM
GI50 [3]: 3.47 µM
TGI [3]: 11.1 µM
GI50 [8]: 28.3 µM
TGI [8]: > 100 µM
GI50 [9]: 10.9 µM
TGI [9]: 32.9 µM
GI50 [4]: 3.21 µM
TGI [4]: 14.7 µM
GI50 [5]: 1.69 µM
TGI [5]: 3.38 µM
GI50 [6]: 13.1 µM
TGI [6]: 46.2 µM

COc1ccc(NC(=O)c2ccc(NC3=C(Cl)C(=O)N(Cc4ccccc4)C3=O)cc2)cc1
GI50 [1]: 3.64 µM
TGI [1]: 12.7 µM
GI50 [7]: 5 µM
TGI [7]: 24.3 µM
GI50 [3]: 11.5 µM
TGI [3]: 90.3 µM
GI50 [8]: 2.6 µM
TGI [8]: > 100 µM
GI50 [9]: 14.5 µM
TGI [9]: 35.9 µM
GI50 [4]: 8.38 µM
TGI [4]: 30 µM
GI50 [5]: 3.29 µM
TGI [5]: 11.8 µM
GI50 [6]: 9.14 µM
TGI [6]: 24.8 µM

O=P(O)(O)OC1C(OP(=O)(O)O)C(OP(=O)(O)O)C(OP(=O)(O)O)C(OP(=O)(O)O)C1OP(=O)(O)O (stereo unspecified)
GI50 [1]: > 1700 µM
TGI [1]: > 2000 µM
GI50 [7]: > 2000 µM
TGI [7]: > 2000 µM
GI50 [3]: > 2000 µM
TGI [3]: > 2000 µM
GI50 [8]: > 1510 µM
TGI [8]: > 2000 µM
GI50 [9]: > 1070 µM
TGI [9]: > 1850 µM
GI50 [4]: > 2000 µM
TGI [4]: > 2000 µM
GI50 [5]: > 2000 µM
TGI [5]: > 2000 µM
GI50 [6]: > 2000 µM
TGI [6]: > 2000 µM

CCCCNC(=S)Nn1c(-c2ccccc2)nc2ccccc2c1=O
TGI [1]: > 100 µM
TGI [2]: > 100 µM
TGI [3]: > 100 µM
TGI [8]: > 100 µM
TGI [9]: > 100 µM
TGI [4]: > 100 µM
TGI [5]: > 100 µM
TGI [6]: > 100 µM

COc1ccc(C(=O)O/N=C2\CCCC\C2=C/c2ccccc2)cc1
TGI [1]: > 100 µM
TGI [2]: > 100 µM
TGI [3]: > 100 µM
TGI [8]: > 100 µM
TGI [4]: 41.5 µM
TGI [5]: 81.2 µM

O=c1[nH]nc(-c2ccccc2)c(-c2ccccc2)c1-n1nc(-c2ccccc2)c2ccccc2c1=O
TGI [1]: > 100 µM
TGI [2]: > 100 µM
TGI [3]: > 100 µM
TGI [8]: 88.7 µM
TGI [9]: > 100 µM
TGI [4]: > 100 µM
TGI [5]: > 100 µM
TGI [6]: > 100 µM

CC(C)(O)Cn1c(=O)c(Oc2ccc(F)cc2F)cc2cnc(NC3CCOCC3)nc21
GI50 [1]: > 25 µM
TGI [1]: > 25 µM
GI50 [7]: > 25 µM
TGI [7]: > 25 µM
GI50 [3]: > 25 µM
TGI [3]: > 25 µM
GI50 [8]: > 25 µM
TGI [8]: > 25 µM
GI50 [9]: > 25 µM
TGI [9]: > 25 µM
GI50 [4]: > 25 µM
TGI [4]: > 25 µM
GI50 [5]: > 25 µM
TGI [5]: > 25 µM
GI50 [6]: > 25 µM
TGI [6]: > 25 µM

CCc1cc(C(N)=O)ccc1-n1nc(C(C)C)c2c(-n3cnc(-c4cnn(C)c4)c3)ccnc21
GI50 [1]: 1.62 µM
TGI [1]: > 100 µM
GI50 [7]: 0.604 µM
TGI [7]: > 100 µM
GI50 [3]: 0.474 µM
TGI [3]: > 100 µM
GI50 [8]: 0.955 µM
TGI [8]: > 100 µM
GI50 [9]: 3.68 µM
TGI [9]: > 100 µM
GI50 [4]: 1.14 µM
TGI [4]: > 100 µM
GI50 [5]: 3.08 µM
TGI [5]: > 100 µM
GI50 [6]: 2.9 µM
TGI [6]: > 100 µM

COc1ccc(/C=C2/SC(=Nc3c(C)nn(-c4ccccc4)c3N)NC2=O)cc1
GI50 [1]: 5.29 µM
TGI [1]: 52.4 µM
GI50 [7]: 3.73 µM
TGI [7]: 23.1 µM
GI50 [3]: 3.8 µM
TGI [3]: 16.6 µM
GI50 [8]: 8.4 µM
TGI [8]: > 100 µM
GI50 [9]: 8.28 µM
TGI [9]: 45.3 µM
GI50 [4]: 5.69 µM
TGI [4]: 59.5 µM
GI50 [5]: 2.38 µM
TGI [5]: 10.8 µM
GI50 [6]: 6.63 µM
TGI [6]: 65.6 µM

C=C1C(=O)OC2C1C(OC(=O)/C(=C/C)COC(C)=O)CC1(CO1)C1C(OC(=O)/C(=C/C)CO)C=C(C)C21 (stereo unspecified)
TGI [1]: 4.4 µM
TGI [2]: 2.74 µM
TGI [3]: 7.48 µM
TGI [8]: 2.24 µM
TGI [9]: 4.18 µM
TGI [4]: 3.97 µM
TGI [5]: 19.5 µM
TGI [6]: 6.99 µM
